These results are taken from patent publication US20100197584A1, “USE OF CURCUMIN TO BLOCK BRAIN TUMOR FORMATION IN MICE” (Research Foundations of the City University of- New York, priority 2007, published 2010).

Data set [1] has as its system GL261 (mouse glioma) cells. Description: Caspase-3/7 assay in GL261 cells. The class given is cell-based. The settings on record: 20 μM and 50 μM, 48 h (FIG. 4). How it is done:
Cells. B16F10 (mouse melanoma), GL261 (mouse glioma), HOG (human oligodendroglioma), A549 (human lung cancer), and […] (mouse neuroblastoma) cells were cultured separately in DMEM containing 10% (v/v) fetal bovine serum and 1% (v/v) penicillin-streptomycin (PS) and allowed to grow to 40% confluence in a 96-well plate. Curcumin Treatment. Two hours before drug treatment, the medium in each well was replaced with 200 μl Neurobasal medium supplemented with 2% (v/v) B27 and 1% (v/v) PS (Drug-treatment Medium). A stock solution (40 mM) of curcumin was prepared in sterile dimethyl sulfoxide (DMSO) (Example 1). Through serial dilution of each stock solution in Drug-treatment Medium, the following concentrations were obtained: 20 μM and 50 μM (for caspase 3/7 assays) or 25 μM and 50 μM (for MTT assays). Drug-treatment Medium in each well was aspirated, and a drug solution of each concentration or carrier-containing medium (control) was added to triplicate wells of cells (50 μl/well). […] Additionally, the background absorbance was determined from parallel wells containing only the Drug-treatment Medium plus a particular concentration of the drug (no cells). […] Fluorescence in each well was measured using the FLx 800 plate reader (Bio-Tek Instruments, Winooski, Vt.) set at 485/20 nm excitation and 528/20 nm emission wavelengths and the sensitivity of 70. […]

For data set [2], the system named is N18 (mouse neuroblastoma) cells. Put plainly: Cell viability assay using MTT, N18. Conditions: 25 μM and 50 μM, 48 h or 96 h, versus control cells (FIG. 6c). The class given is cell-based. How it is done:
(§1) Cells. B16F10 (mouse melanoma), GL261 (mouse glioma), HOG (human oligodendroglioma), A549 (human lung cancer), and N18 (mouse neuroblastoma) cells were cultured separately in DMEM containing 10% (v/v) fetal bovine serum and 1% (v/v) penicillin-streptomycin (PS) and allowed to grow to 40% confluence in a 96-well plate.
(§2) Curcumin Treatment. Two hours before drug treatment, the medium in each well was replaced with 200 μl Neurobasal medium supplemented with 2% (v/v) B27 and 1% (v/v) PS (Drug-treatment Medium). A stock solution (40 mM) of curcumin was prepared in sterile dimethyl sulfoxide (DMSO) (Example 1). Through serial dilution of each stock solution in Drug-treatment Medium, the following concentrations were obtained: 20 μM and 50 μM (for caspase 3/7 assays) or 25 μM and 50 μM (for MTT assays). […] Additionally, the background absorbance was determined from parallel wells containing only the Drug-treatment Medium plus a particular concentration of the drug (no cells).
(§3) Cell Viability Assay Using MTT (3-(4,5-Dimethylthiazolyl-2)-2,5-Diphenyltetrazolium Bromide). […] Absorbance was measured at 570 nm using a 96-well multi scanner auto-reader with the extraction buffer used as blank. For curcumin samples, the absorbance obtained from the corresponding curcumin plus medium samples was subtracted.

Data set [3] concerns A549 (human lung cancer) cells. Description: Cell viability assay using MTT, A549. The class given is cell-based. Conditions: 25 μM and 50 μM, 48 h or 96 h, versus control cells (FIG. 6d). The protocol: as §1, §2, §3
Data set [4] is described as follows: Permeability of the blood-brain barrier to curcumin (HPLC of brain after tail vein injection). The class given is in vivo, mouse. The protocol:
A curcumin solution (200 μl of 667 μM curcumin in PBS containing 3% DMSO) was injected through the tail vein of each mouse, the mice were sacrificed after 15 min, 30 min, and 2 hours, and brain regions (forebrain, hippocampus, and hypothalamus) as well as blood were collected for analysis. Each tissue fraction was diluted into 300 μl of water, homogenized, and then diluted with 700 μl of acetonitrile. Proteins and other insoluble substances were separated by centrifugation at 8000 rpm in a table-top Eppendorf microcentrifuge, and the supernatants were transferred to fresh tubes and then evaporated by blowing in nitrogen gas. The blood (100 μl) was diluted with 40 μl EDTA (500 mM) and 160 μl of water. This mixture was diluted with 700 μl of actonitrile, vortexed, protein and debris separated by centrifugation and then the supernatant evaporated under nitrogen. The residues obtained were dissolved in 50 μl of acetonitrile:water (70:30) and 30 μl of this solution injected for HPLC analysis on a C18 reverse-phase column. A standard 0.1 mM solution of curcumin dissolved in acetonitrile:water (70:30) was injected for comparison. The mobile phase was a 30-70% gradient of acetonitrile in water containing 0.1% trifluoroacetic acid (TFA). Curcumin eluted as a closely spaced triplet with the strongest peak eluting at 12.8 min.

Data set [5] concerns melanoma cell lines. Conditions: melanoma cell lines (Siwak et al. 2005); cited from earlier work.

`COc1cc(/C=C/C(=O)CC(=O)/C=C/c2ccc(O)c(OC)c2)ccc1O` [curcumin]: the caspase-3/7 activity entry in data set [1] is recorded as “increased”. In addition, the “cell viability (MTT)” value in data set [2] and in data set [3] was “dramatic decrease” each time. Moreover, the “curcumin in mouse brain (HPLC trace)” value in data set [4] (15 minutes after tail vein injection of 200 μl of 667 μM curcumin (FIG. 7b)) and in data set [4] (30 minutes after tail vein injection of 200 μl of 667 μM curcumin (FIG. 7c)) was “presence of curcumin” throughout. In data set [4] (mouse brain, after tail vein injection of 200 μl of 667 μM curcumin (FIG. 7d)), the “time by which curcumin was completely metabolized” value is at most 2 h. Besides, the apoptosis result in data set [5] is “induces apoptosis”.
